Reference: US8318769B2, “Substituted sulfonamide compounds” (Gruenethal GmbH, priority 2008, dated 2012)

What was measured:
[1] = molecular target: T1, human bradykinin 1 receptor (B1R) (Homo sapiens, UniProt P46663); test: FLIPR Ca2+ assay, B1R antagonism, human; assay type: cell-based; settings: 10 μM test substance, CHO K1 cells with human B1R gene (hB1R cells), Lys-Des-Arg9-bradykinin at EC80, % inhibition compared with the maximum achievable inhibition; for inhibition at 10 µM: read-out: B1R antagonism, human [10 μM] % inhibition
T1 construct: expressed in transfected cells
T1 sequence (P46663 1-353): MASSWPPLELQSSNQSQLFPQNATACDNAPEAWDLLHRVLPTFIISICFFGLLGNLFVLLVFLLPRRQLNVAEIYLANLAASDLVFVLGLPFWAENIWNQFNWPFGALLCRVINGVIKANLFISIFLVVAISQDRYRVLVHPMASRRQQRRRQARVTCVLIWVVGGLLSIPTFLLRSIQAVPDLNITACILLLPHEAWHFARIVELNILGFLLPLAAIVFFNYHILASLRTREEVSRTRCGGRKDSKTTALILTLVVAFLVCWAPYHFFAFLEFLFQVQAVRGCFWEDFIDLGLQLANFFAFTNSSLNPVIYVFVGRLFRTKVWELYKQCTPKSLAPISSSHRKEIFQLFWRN
Protocol: The agonistic or antagonistic action of substances can be quantified on the bradykinin 1 receptor (B1R) of the human and rat species with ectopically expressing cell lines (CHO K1 cells) and with the aid of a Ca^2+-sensitive dyestuff (Fluo-4) in a fluorescent imaging plate reader (FLIPR). The figure in % activation is based on the Ca^2+ signal after addition of Lys-Des-Arg^9-bradykinin (0.5 nM) or Des-Arg^9-bradykinin (100 nM). Antagonists lead to a suppression of the Ca^2+ inflow after addition of the agonist. % inhibition compared with the maximum achievable inhibition is stated.
The agonistic or antagonistic action of substances can be determined on the bradykinin 1 receptor (B1R) of the human and rat species with the following assay. In accordance with this assay, the Ca^2+ inflow through the channel is quantified with the aid of a Ca^2+-sensitive dyestuff (type Fluo-4, Molecular Probes Europe BV, Leiden, Holland) in a fluorescent imaging plate reader (FLIPR, Molecular Devices, Sunnyvale, USA).
Chinese hamster ovary cells (CHO K1 cells) transfected stably with the human B1R gene (hB1R cells) or the B1R gene of the rat (rB1R cells) are used. For functional studies, these cells are plated out on black 96-well plates with a clear base (BD Biosciences, Heidelberg, Germany or Greiner, Frickenhausen, Germany) in a density of 20,000-35,000 cells/well. The cells are left overnight at 37° C. and 5% CO2 in culture medium (hB1R cells: Nutrient Mixture Ham's F12, Gibco Invitrogen GmbH, Karlsruhe, Germany or DMEM, Sigma-Aldrich, Taufkirchen, Germany; rB1R cells: D-MEM/F12, Gibco Invitrogen GmbH, Karlsruhe, Germany) with 10 vol. % FBS (foetal bovine serum, Gibco Invitrogen GmbH, Karlsruhe, Germany or PAN Biotech GmbH, Aidenbach, Germany).
On the following day, the cells are loaded for 60 min at 37° C. with 2.13 μM Fluo-4 (Molecular Probes Europe BV, Leiden, Holland) in HBSS buffer (Hank's buffered saline solution, Gibco Invitrogen GmbH, Karlsruhe, Germany) with 2.5 mM probenecid (Sigma-Aldrich, Taufkirchen, Germany) and 10 mM HEPES (Sigma-Aldrich, Taufkirchen, Germany). The plates are then washed 2× with HBSS buffer, and HBSS buffer which additionally contains 0.1% BSA (bovine serum albumin; Sigma-Aldrich, Taufkirchen, Germany), 5.6 mM glucose and 0.05% gelatine (Merck KGaA, Darmstadt, Germany) is added. After a further incubation of 20 minutes at room temperature, the plates are inserted into the FLIPR for the Ca^2+ measurement.
Alternatively, the plates are washed with buffer A (15 mM HEPES, 80 mM NaCl, 5 mM KCl, 1.2 mM CaCl2, 0.7 mM MgSO4, 2 g/l glucose, 2.5 mM probenecid), buffer A is added and the plates are loaded with 2.5 μM Fluo-4 and 0.025% Pluronic F127 (Sigma-Aldrich, Taufkirchen, Germany). Thereafter, the cells are washed 2× with buffer A and incubated for 30 minutes with buffer A, which additionally contains 0.05% BSA and 0.05% gelatine, at room temperature and thereafter inserted into the FLIPR for the Ca^2+ measurement.
The Ca^2+-dependent fluorescence is measured here before and after addition of substances (λex=488 nm, λem=540 nm). Quantification is by measurement of the highest fluorescence intensity (FC, fluorescence counts) over time.
The FLIPR protocol consists of 2 additions of substance. Test substances (10 μM) are first pipetted on to the cells and the Ca^2+ inflow is compared with the control (hB1R: Lys-Des-Arg^9-bradykinin >=50 nM; rB1R: Des-Arg^9-bradykinin 10 μM). This gives the figure in % activation based on the Ca^2+ signal after addition of Lys-Des-Arg^9-bradykinin (>=50 nM) or Des-Arg^9-bradykinin (10 μM).
After incubation for 10-20 minutes, Lys-Des-Arg^9-bradykinin (hB1R) or Des-Arg^9-bradykinin (rB1R) in the concentration of the EC80 is applied and the inflow of Ca^2+ is likewise determined. Antagonists lead to a suppression of the Ca^2+ inflow. % inhibition compared with the maximum achievable inhibition is calculated. […]

[2] = molecular target: T2, bradykinin 1 receptor (B1R) of the rat (Rattus norvegicus, UniProt P97583); test: FLIPR Ca2+ assay, B1R antagonism, rat; assay type: cell-based; settings: CHO K1 cells with rat B1R gene (rB1R cells), Des-Arg9-bradykinin at EC80, % inhibition compared with the maximum achievable inhibition; for inhibition at 10 µM: CHO-K1, 10 μM test substance, read-out: B1R antagonism, rat [10 μM] % inhibition
T2 construct: expressed in transfected cells
T2 sequence (P97583 1-337): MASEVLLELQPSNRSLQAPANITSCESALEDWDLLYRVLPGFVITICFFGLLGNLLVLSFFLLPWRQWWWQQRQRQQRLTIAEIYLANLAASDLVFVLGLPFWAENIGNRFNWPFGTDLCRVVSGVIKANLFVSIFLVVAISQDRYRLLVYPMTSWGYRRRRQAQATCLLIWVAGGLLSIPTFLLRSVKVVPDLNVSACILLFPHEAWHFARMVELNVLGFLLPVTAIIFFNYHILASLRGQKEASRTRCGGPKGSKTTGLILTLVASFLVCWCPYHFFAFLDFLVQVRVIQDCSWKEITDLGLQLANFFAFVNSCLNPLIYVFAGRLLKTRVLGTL
Procedure, shortened: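 Antagonism is given as % of maximum achievable suppression of agonist-evoked Ca2+ influx, measured by Fluo-4 peak fluorescence in FLIPR. Stable hB1R or rB1R CHO K1 lines received 10 μM compound for 10-20 min before EC80 Lys-Des-Arg9-bradykinin (human) or Des-Arg9-bradykinin (rat).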

Row | inhibition at 10 µM [1] | inhibition at 10 µM [2] | B1R antagonism, human [10 μM] % inhibition ([1]; 10 µM) | B1R antagonism, rat [10 μM] % inhibition ([2]; 10 μM test substance) | SMILES
1 | 63% | 98% |  |  | CN1CCN(CCOC2(c3cccnc3)CCN(C(=O)CC(NS(=O)(=O)c3ccc4ccccc4c3)c3ccccc3)CC2)CC1 (centres unmarked) [Example 32, N-(3-(4-(2-(4-methylpiperazin-1-yl)ethoxy)-4-(pyridin-3-yl)piperidin-1-yl)-3-oxo-1-phenylpropyl)naphthalene-2-sulfonamide]
2 | 87% | 91% |  |  | O=C(CC(NS(=O)(=O)c1ccc2ccccc2c1)c1ccccc1)N1CCC(OCCN2CCCC2)(c2cccnc2)CC1 (centres unmarked) [Example 26, N-(3-oxo-1-phenyl-3-(4-(pyridin-3-yl)-4-(2-(pyrrolidin-1-yl)ethoxy)piperidin-1-yl)propyl)naphthalene-2-sulfonamide]
3 |  |  | 100% | 102% | COc1cc(C)c(S(=O)(=O)N2CCCCC2COCC(=O)N2CCC(OCCN3CCCC3)(c3cccnc3)CC2)c(C)c1 (centres unmarked) [Example 82, 2-[[1-[(4-methoxy-2,6-dimethyl-phenyl)sulfonyl]-piperidin-2-yl]-methoxy]-1-[4-pyridin-3-yl-4-(2-pyrrolidin-1-yl-ethoxy)-piperidin-1-yl]-ethanone]
4 | 100% | 102% |  |  | COc1cc(C)c(S(=O)(=O)N(CCOCC(=O)N2CCC(OCCN3CCCC3)(c3ccncc3)CC2)c2ccccc2)c(C)c1 [Example 100, 4-methoxy-2,6-dimethyl-N-[2-[2-oxo-2-[4-pyridin-4-yl-4-(2-pyrrolidin-1-yl-ethoxy)-piperidin-1-yl]-ethoxy]-ethyl]-N-phenyl-benzenesulfonic acid amide]
5 | 100% | 101% |  |  | O=C(COC[C@@H]1CCCCN1S(=O)(=O)c1ccccc1C(F)(F)F)N1CCC(OCCN2CCCC2)(c2cccnc2)CC1 [Example 47, (S)-1-(4-(pyridin-3-yl)-4-(2-(pyrrolidin-1-yl)ethoxy)piperidin-1-yl)-2-((1-(2-(trifluoromethyl)phenylsulfonyl)piperidin-2-yl)methoxy)ethanone]
6 | 100% | 102% |  |  | COc1cc(C)c(S(=O)(=O)N2CCCC[C@H]2COCC(=O)N2CCC(OCCn3cncn3)(c3cccnc3)CC2)c(C)c1 [Example 59, 2-[[(2S)-1-[(4-methoxy-2,6-dimethyl-phenyl)sulfonyl]-piperidin-2-yl]-methoxy]-1-[4-pyridin-3-yl-4-[2-(1H-[1,2,4]triazol-1-yl)-ethoxy]-piperidin-1-yl]-ethanone]
7 | 100% | 102% |  |  | COc1cc(C)c(S(=O)(=O)N2CCCCC2COCCC(=O)N2CCC(OCCN3CCCC3)(c3cccnc3)CC2)c(C)c1 (centres unmarked) [Example 119, 3-[[1-[(4-methoxy-2,6-dimethyl-phenyl)sulfonyl]-piperidin-2-yl]-methoxy]-1-[4-pyridin-3-yl-4-(2-pyrrolidin-1-yl-ethoxy)-piperidin-1-yl]-propan-1-one]
8 | 91% | 99% |  |  | Cc1cccc(Cl)c1S(=O)(=O)N1c2ccccc2OCC1COCC(=O)N1CCC(OCCN2CCCC2)(c2cccc(F)c2)CC1 (centres unmarked) [Example 109, 2-[[4-[(2-chloro-6-methyl-phenyl)sulfonyl]-3,4-dihydro-2H-[1,4]benzoxazin-3-yl]-methoxy]-1-[4-(3-fluorophenyl)-4-(2-pyrrolidin-1-yl-ethoxy)-piperidin-1-yl]-ethanone]

Second part, the molecule before the results:

Row | SMILES | inhibition at 10 µM [1] | inhibition at 10 µM [2] | B1R antagonism, human [10 μM] % inhibition ([1]; 10 µM) | B1R antagonism, rat [10 μM] % inhibition ([2]; 10 μM test substance)
9 | Cc1cc(S(=O)(=O)N2CCCCC2CCC(=O)N2CCC(OCCN3CCCCC3)(c3cccnc3)CC2)c(C)cc1Cl (centres unmarked) [Example 13, 3-(1-(4-chloro-2,5-dimethylphenylsulfonyl)piperidin-2-yl)-1-(4-(2-(piperidin-1-yl)ethoxy)-4-(pyridin-3-yl)piperidin-1-yl)propan-1-one] | 101% | 50% |  | 
10 | O=C(COCC1CCc2ccccc2N1S(=O)(=O)c1ccc(Cl)c(Cl)c1)N1CCC(OCCCN2CCCCC2)(c2cccnc2)CC1 (centres unmarked) [Example 19, 2-((1-(3,4-dichlorophenylsulfonyl)-1,2,3,4-tetrahydroquinolin-2-yl)methoxy)-1-(4-(3-(piperidin-1-yl)propoxy)-4-(pyridin-3-yl)piperidin-1-yl)ethanone] | 103% | 94% |  | 
11 | O=C(CC1CCCCN1S(=O)(=O)c1cccc(C(F)(F)F)c1)N1CCC(OCCN2CCCC2)(c2cccnc2)CC1 (centres unmarked) [Example 22, 1-(4-(pyridin-3-yl)-4-(2-(pyrrolidin-1-yl)ethoxy)piperidin-1-yl)-2-(1-(3-(trifluoromethyl)phenylsulfonyl)piperidin-2-yl)ethanone] | 39% | 102% |  | 
12 | O=C(COCC1CCc2ccccc2N1S(=O)(=O)c1ccc(Cl)c(Cl)c1)N1CCC(OCCN2CCCC2)(c2cccnc2)CC1 (centres unmarked) [Example 24, 2-((1-(3,4-dichlorophenylsulfonyl)-1,2,3,4-tetrahydroquinolin-2-yl)methoxy)-1-(4-(pyridin-3-yl)-4-(2-(pyrrolidin-1-yl)ethoxy)piperidin-1-yl)ethanone] | 69% | 101% |  | 
13 | COc1cc(C)c(S(=O)(=O)N(CCOCC(=O)N2CCC(OCCN3CCCC3)(c3cccnc3)CC2)Cc2cccnc2)c(C)c1 [Example 5, 4-methoxy-2,6-dimethyl-N-(2-(2-oxo-2-(4-(pyridin-3-yl)-4-(2-(pyrrolidin-1-yl)ethoxy)piperidin-1-yl)ethoxy)ethyl)-N-(pyridin-3-ylmethyl)benzenesulfonamide] | 100% | 102% |  | 
